A short description of this test: Inhibitory concentration against polymerization in A17 double mutant HIV-1 RT using a template primer of poly rC/dG12-18 and [3H]dGTP.

Molecules are shown by their SMILES.

For the compound `O=C(OC1COc2cc(O)ccc2C1)c1ccc(O)c(O)c1O` (stereo not drawn) [2,3,4-Trihydroxy-benzoic acid 7-hydroxy-chroman-3-yl ester], the IC50 (usually the concentration that inhibits the measured activity by half) is 30.8 µM. The value for `O=C(OC1COc2ccccc2C1)c1ccc(O)c(O)c1O` (stereo not drawn) [2,3,4-Trihydroxy-benzoic acid chroman-3-yl ester] was greater than 100 µM.

Turning to `O=C(OC1COc2cc(O)cc(O)c2C1)c1cccc(O)c1O` (stereo not drawn) [2,3-Dihydroxy-benzoic acid 5,7-dihydroxy-chroman-3-yl ester], the IC50 was greater than 100 µM.
